Test results taken from US7537765B2, “Inhibition of HIV-1 replication by disruption of the processing of the viral capsid-spacer peptide 1 protein” (priority 2003, dated 2009).
Where two headings read alike, the source gives them in different places.

Legend:
[1] = tested on: primary Clade B HIV-1 isolates; experiment: Virus inhibition assay, primary HIV-1 isolates in PBMC, p24 endpoint; assay type: cell-based; conditions: Human immunodeficiency virus 1, PBMC
Experimental: (§1) A robust virus inhibition assay was used to evaluate the anti-viral activity of DSB against primary HIV-1 isolates propagated in PMBC. Briefly, serial dilutions of DSB were made in medium into 96-well tissue culture plates. 25-250 TCID50 of virus and 5×10^5 PHA-stimulated PBMCs were added to each well. On days 1, 3 and 5 post-infection, media was removed from each well and replaced with fresh media containing DSB at the appropriate concentration. On day 7 post-infection, culture supernatant was removed from each well for p24 detection of virus replication and 50% inhibitory concentrations (IC50) were calculated by standard methods.

[2] = tested on: HIV-1 infected MAGI cells; assay type: cell-based
From the text: To distinguish the inhibitory activity of DSB against early and late replication targets, a multinuclear activation of a galactosidase indicator (MAGI) assay was used. In this assay, the targets are HeLa cells stably expressing CD4, CXCR4, CCR5 and a reporter construct consisting of the—galactosidase gene (modified to localize to the nucleus) driven by a truncated HIV-1 LTR. Infection of these cells results in expression of Tat that drives activation of the β-galactosidase reporter gene. Expression of β-galactosidase in infected cells is detected using the chromogenic substrate X-gal.

[3] = tested on: NNRTI-resistant HIV-1 isolates; experiment: NNRTI-resistant HIV-1 isolates in MT-2 cells, cell viability (XTT) endpoint; assay type: cell-based; conditions: for IC50: X4, MT-2 cells
Experimental: (§2) The activity of DSB was tested against a panel of HIV-1 isolates resistant to approved drugs. These viruses were obtained from the NIH AIDS Research and Reference Reagent Program. Assays were performed using virus propagated in PBMCs with a p24 endpoint (above), or using cell line targets (MT-2 cells) and a cell killing endpoint. The MT-2 assay format was as follows. Serial dilutions of DSB, or each approved drug, were prepared in 96 well plates. To each sample well was added media containing MT-2 cells at 3×10^5 cells/mL and virus inoculum at a concentration necessary to result in 80% killing of the cell targets at 5 days post-infection (PI). On day 5 post-infection, virus-induced cell killing was determined by the XTT method and the inhibitory activity of the compound was determined.

[4] = tested on: drug resistant HIV-1 isolates; experiment: Drug resistant HIV-1 isolates in fresh PBMC, p24 endpoint; assay type: cell-based; conditions: for IC50: Human immunodeficiency virus 1, PBMC
Experimental: as §1, with “concentration.” for “concentration. On day 7 post-infection, culture supernatant was removed from each well for p24 detection of virus replication and 50% inhibitory concentrations (IC50) were calculated by standard methods.”
as §2

[5] = tested on: HIV-1 replication in H9 lymphocyte cells; conditions: cited from earlier work
[6] = 168 h, isolate 92HT599, co-receptor X4, PBMC, p24 day 7, read-out: IC50
[7] = 168 h, isolate 92US723, co-receptor R5/X4, PBMC, p24 day 7, read-out: IC50
[8] = 168 h, isolate 3401N*, co-receptor R5/X4, PBMC, p24 day 7, read-out: IC50
[9] = 168 h, isolate 19101N*, co-receptor R5, PBMC, p24 day 7, read-out: IC50
[10] = 168 h, isolate 22101N*, co-receptor R5/X4, PBMC, p24 day 7, read-out: IC50
[11] = 168 h, isolate BZ167, co-receptor X4, PBMC, p24 day 7, read-out: IC50
[12] = 168 h, isolate US1, co-receptor R5, PBMC, p24 day 7, read-out: IC50
[13] = mean over the panel of primary isolates, read-out: IC50, Mean
[14] = Human immunodeficiency virus 1, MT2, isolate 3, NNRTI-resistant, Y181C
[15] = Human immunodeficiency virus 1, MT2, isolate 4, NNRTI-resistant, K103N Y181C
[16] = isolate 1, NRTI-resistant, K70R T215Y/F, R5/X4
[17] = isolate 2, NRTI-resistant, K70R T215Y/F, R5/X4
[18] = isolate 5, Protease-resistant, V82A, X4
[19] = isolate 6, Protease-resistant, I84V, X4
[20] = isolate 7, Protease-resistant, L10R/M46I/L63P/V82T/I84V, X4
[21] = H9 lymphocyte cells, read-out: EC50, inhibitory activity against HIV-1 replication

Row | Structure (SMILES) | IC50 [1, 6] | IC50 [1, 7] | IC50 [1, 8] | IC50 [1, 9] | IC50 [1, 10] | IC50 [1, 11] | IC50 [1, 12] | IC50 [1, 13] | % Decrease (β-galactosidase expression) ([2]; HIV-1 infected MAGI cells) | IC50 [3, 14] | IC50 [3, 15] | IC50 [4, 16] | IC50 [4, 17] | IC50 [4, 18] | IC50 [4, 19] | IC50 [4, 20] | EC50 [5, 21] | also measured
1 | Cc1cn([C@H]2C[C@H](N=[N+]=[N-])[C@@H](CO)O2)c(=O)[nH]c1=O [AZT, zidovudine] | 5.8 nM | 1.2 nM | 17.5 nM | 2.4 nM | 0.9 nM | 2.2 nM | 0.9 nM | 4.4 nM | 82% | 5.1 nM | 2 nM | 86.4 nM | 63.4 nM | 13.1 nM | 14.4 nM | 3.5 nM | – | Fold Resistance ([4]; isolate 1, NRTI-resistant): 54 X; Fold Resistance ([4]; isolate 2, NRTI-resistant): 40 X
2 | C=C(C)[C@@H]1CC[C@]2(C(=O)O)CC[C@]3(C)[C@H](CC[C@@H]4[C@@]5(C)CC[C@H](O)C(C)(C)[C@@H]5CC[C@]43C)[C@@H]12 [Betulinic acid] | – | – | – | – | – | – | – | – | – | – | – | – | – | – | – | – | 1400 nM | –
3 | CC(C)(C)NC(=O)[C@@H]1CN(Cc2cccnc2)CCN1C[C@@H](O)C[C@@H](Cc1ccccc1)C(=O)N[C@H]1c2ccccc2C[C@H]1O [Indinavir, indinavir] | – | – | – | – | – | – | – | – | – | 2.5 nM | 4.5 nM | 9.8 nM | 6.1 nM | 39.7 nM | 32.7 nM | 72.5 nM | – | % Decrease (β-galactosidase expression) [2]: 10%
4 | Cc1ccnc2c1NC(=O)c1cccnc1N2C1CC1 [Nevirapine, nevirapine] | 25.3 nM | 26.8 nM | 32.1 nM | 59.4 nM | 4.9 nM | 31.2 nM | 22.1 nM | 28.8 nM | 85% | > 3800 nM | 2630 nM | – | – | – | – | – | – | Fold Resistance ([3]; isolate 3, NNRTI-resistant): (>177X); Fold Resistance ([3]; isolate 4, NNRTI-resistant): (122X)
5 | CC(C)[C@@H]1CC[C@]2(C(=O)O)CC[C@]3(C)C(CCC4[C@@]5(C)CC[C@H](O)C(C)(C)C5CC[C@]43C)C12 (stereo partly drawn) [dihydrobetulinic acid] | – | – | – | – | – | – | – | – | – | – | – | – | – | – | – | – | – | EC50 ([5]; unit inferred, read-out: EC50, anti-HIV activity): 900 nM
6 | CC(=O)[C@@H]1CC[C@]2(C(=O)O)CC[C@]3(C)[C@H](CC[C@@H]4[C@@]5(C)CC[C@H](O)C(C)(C)[C@@H]5CC[C@]43C)[C@@H]12 [platanic acid] | – | – | – | – | – | – | – | – | – | – | – | – | – | – | – | – | 6500 nM | –
